The text below walks through data of patent US20030229132A1, “Small molecule modulators of apoptosis” (priority 2002, published 2003).

In series [1] the test system is procaspase-3 processing. Put plainly: Procaspase-3 processing by capture ELISA in HeLa cell extract (cyto c / compound titration). The settings on record: cyto c titrated into HeLa cell extract, no compound; read-out: concentration for half-maximal activation (AC50) of procaspase-3 processing. The class given is biochemical. How it is done: FIG. 2 depicts activity of compounds 1-5 in cell lysates. (A) Compound activation is cyto c dependent. Cyto c was titrated into S-100 cytoplasmic extracts with vehicle alone or 20 μM compound and procaspase-3 processing was assayed by capture ELISA. (B) Compound activation is dose-dependent. Compounds or vehicle were titrated into S-100 cytoplasmic extracts at a cyto c concentration of 1.25 μM and procaspases-3 processing was assayed by capture ELISA. (C) Immunoblot assay of compound-induced caspase activation. Samples at the 20 μM compound concentration in (B) were separated on SDS-polyacrylamide gel and transferred to polyvinyl membrane. […]
In order to determine if these compounds required cyto c for caspase-3 activation, cyto c was titrated into HeLa cell extract in the presence and absence of compounds and procaspase-3 processing was monitored by capture ELISA (Cyto c was titrated into lysates as detailed in the screening procedure. Capture ELISA assay for active caspase-3 was adapted from Aragones et al., www.biocarta.com. Briefly, a mouse monoclonal antibody recognizing both full-length and cleaved caspase-3 (capture antibody, Transduction Laboratories) was immobilized onto an immunosorp plate and blocked with 5% milk, and 25 μL of the caspase activation reaction in 75 μL Superblock (Pierce) was added. […]
(ELISA stands for enzyme-linked immunosorbent assay.)

The test system of series [2] is Jurkat cells. The experiment in a line: DNA fragmentation analysis in Jurkat cells. Particulars: 50 μM compound or 1 μM staurosporin, 8 hr. The class given is cell-based, human.
Series [3] deals with Jurkat cells. The experiment in a line: PARP cleavage in Jurkat cells (immunoblot). The format is cell-based, human. The settings on record: 50 μM compound or 1 μM staurosporin, 6 hr. How it is done:
(§1) (C) DNA fragmentation analysis. […] Cell viability assay.
(§2) Compounds were then tested for their ability to induce apoptosis in live cells. The ability of the compounds to activate caspase-3 in a Jurkat cell line was first assayed. […] This same pattern was seen when we assayed for the cleavage of poly (ADP-ribose) polymerase (PARP), a cellular substrate of caspases-3 and -7 (see, D. W. Nicholson, Cell Death Differ 6, 1028-42 (1999)). Upon apoptosis, PAR-P is cleaved from a 116 kD to an 85 kD protein.
Background: In western blotting, separated proteins are transferred to a membrane and probed.

Series [4] relates to Jurkat cells. Put plainly: Caspase-3 activation in Jurkat cells (immunoblot). The format is cell-based, human. The settings on record: 50 μM compound or 1 μM staurosporin, 6 hr. How it is done:
as §1, §2

Series [5] concerns caspase-3 (DEVDase activity). Put plainly: DEVDase fluorescence screen in HeLa cell S-100 cytoplasmic extracts. The class given is biochemical. Particulars: in vitro fluorescence assay, HeLa S-100 extracts with cyto c. An excerpt: In order to identify compounds that modulate apoptosis, a chemical genetics approach was utilized to screen for molecules that target components of the apoptosis pathway (see, T. U. Mayer et al., Science 286, 971-4 (1999)). An in vitro screen using cytoplasmic extracts was adapted for apoptosis to a 96-well format and used to test an in-house library of ˜3500 compounds (see, T. Fernandes-Alnemri et al, Proc Natl Acad Sci USA 93, 7464-9 (1996); X. Liu, C. N. Kim, J. Yang, R. Jemmerson, X. Wang, Cell 86, 147-57 (1996); L. M. Leoni et al., Proc Natl Acad Sci USA 95, 9567-71 (1998)). Briefly, individual compounds were added to HeLa cell S-100 cytoplasmic extracts at a final concentration of 1 mM and apoptosis was induced by adding bovine heart cyto c (HeLa cell cytoplasmic extracts were prepared according to previously published reports (see, P. Li et al., Cell 91, 479-89 (1997)). Compounds were distributed into 96-well microtiter plates at a final concentration of 1 mM. To each well was added 250 μg of total protein from cytoplasmic extracts in HEB buffer (50 mM Hepes pH 7.4, 50 mM KCl, 5 mM EGTA, 2 mM MgCl), with 2 mM DTT, 2 μM cyto c, and 0.5 μM DEVD-AFC substrate in a total of 150 μL. Plates were incubated at 37° C. and fluorescence was read in a LJL Biosystems plate reader at 10 min intervals). Activation of caspase-3 was monitored by cleavage of a fluorogenic substrate, Asp-Glu-Val-Asp-7-amino-4-trifluoromethylcoumarin (DEVDase activity). As designed, the DEVDase fluorescence screen encompasses the release of cyto c from the mitochondria to the activation of caspase-3. Possible targets include cyto c, Apaf-1, caspase-9, caspase-3, inhibitors of apoptosis (IAPs), and possible unidentified components present in the cytosol.

Series [6] relates to CCRF-CEM. The experiment in a line: Cell viability, CCRF-CEM. The class given is cell-based, human. Particulars: leukemia. The text has this:
(§3) Samples were then probed by immunoblot for (A) caspase-3 activation or (B) cleavage of PARP. (C) DNA fragmentation analysis. […] The DNA was isolated by phenol/chloroform extraction, separated on a 2% agarose gel and visualized by ethidium bromide staining. Cell viability assay.
(§4) Normal cell lines include peripheral blood lymphocytes (PBL) isolated from donated human blood, non-transformed mammary fibroblasts (MCF-10A), human mammary epithelial cells (HMEC), human umbilical vein endothelial cells (HUVEC), and human prostate epithelial cells (PREC). Transformed cell lines include cell lines from leukemia, breast, lung, ovarian, and epidermal cancers (Table 1).

The subject of series [7] is peripheral blood lymphocytes (PBL). Put plainly: Cell viability, PBL. The format is cell-based, human. The settings on record: normal cell.
Excerpt: as §3, §4

Series [8] concerns Normal (PBL) and cancer (Jurkat, Molt-4, CCRF-CEM) lymphocyte cell lines. The experiment in a line: Cell viability, normal and cancer lymphocyte cell lines compared. Particulars: all four lymphocyte cell lines, normal and cancerous.
Excerpt: as §3, §4

The subject of series [9] is NCI-H23. The experiment in a line: Cell viability, NCI-H23. The format is cell-based, human. The settings on record: NCI-H23, lung.
Series [10] relates to Jurkat cells transfected with Apaf-1 siRNA. Put plainly: Viability of Jurkat cells transfected with Apaf-1 siRNA (MTT test). The class given is cell-based, human. Particulars: 20 nM Apaf-1 siRNA 48 hr, then 24 hr incubation. How it is done:
(A) Jurkat cells were transfected with 20 nM Apaf-1 siRNA for 48 hr and half the cells were lysed and probed with antibodies to Apaf-1, caspase-9, and caspase-3. The other half of the cells was incubated with varying concentrations of (B), compound 2 or (C), Fas ligand for 24 hr and assayed for viability by MTT test. (D) SK-OV-3 cells were transiently transfected with Apaf-1 or vector control for 24 hr and then incubated with vary concentrations of compound 2 and assayed for viability. (E) Cyto c was titrated into SK-OV-3 cell lysate in the presence of 300 μM dATP, with or without 150 nM purified Apaf-1 and 20 μM compound 2 as indicated.
In order to verify that compound 2 targets the apoptosome as a function of its cytotoxic activity, small interfering RNA (siRNA) was used to silence the expression of Apaf-1 in Jurkat cells. Sense and anti-sense oligonucleotides corresponding to nucleotides 978-998 of Apaf-1 (([…]) as reported by Lassus et al. Science 297, 1352-4. (2002)), were purchased from Dharmacon. Transfection of siRNA into Jurkat cells was accomplished using GeneSilencer (Gene Therapy Systems) according to manufacturer's instructions. There was a significant decrease in the level of expression of Apaf-1 48 hr after transfection of an Apaf-1 specific siRNA, without affecting the expression of caspases in the pathway (FIG. 5A).
In general terms: Tetrazolium dyes change colour on reduction, which living cells bring about.

Regarding “cyto c: bovine heart cyto c added to cytoplasmic extracts to induce apoptosis”, the AC50 in series [1] is ~1750 nM.
In the case of `O=C1Cc2ccccc2N1Cc1ccc(Cl)c(Cl)c1` [Compound 3], in series [2], the DNA fragmentation result is “induced DNA fragmentation”. Moreover, the “cleavage of PARP” value in series [3] is on record as “limited processing”. The “processing of procaspase-3” value in series [4] was “significant processing”. In addition, the “activation of DEVDase activity” value in [5] is reported as “strongly activated DEVDase activity”.
`CCOC(=O)NCc1ccc(Cl)c(Cl)c1` [Compound 1]: the DNA fragmentation entry in series [2] is recorded as “less pronounced effect”. The “processing of procaspase-3” value in series [4] is reported as “no processing”. Moreover, in series [5], the “activation of DEVDase activity” value was “most active”.
The IC50 is the concentration that inhibits the measured activity by half. The low end stands for greater potency, the high end for weaker potency. Turning to `CN[C@@H]1C[C@H]2O[C@@](C)([C@@H]1OC)n1c3ccccc3c3c4c(c5c6ccccc6n2c5c31)C(=O)NC4` [Staurosporin, reference compound], the IC50 in [6] amounted to 69 nM; in series [7], 69 nM; in [9] it was 85 nM. Also, the DNA fragmentation result in series [2] is ““laddering” effect”. Moreover, the “cleavage of PARP” value in series [3] is “complete cleavage”. Moreover, in [8], the susceptibility to cytotoxicity entry is given as “equally susceptible”. In addition, in [4], the “processing of procaspase-3” value is given as “significant processing”.

B1: Fas Ligand: induces apoptosis which proceeds through the caspase-8 pathway (protein, UniProt P48023 130-281, looked up)
Tumor necrosis factor ligand …: QIGHPSPPPEKKELRKVAHLTGKSNSRSMPLEWEDTYGIVLLSGVKYKKGGLVINETGLYFVYSKVYFRGQSCNNLPLSHKVYMRNSKYPQDLVMMEGKMMSYCTTGQMWARSSYLGAVFNLTSADHLYVNVSELSLVNFEESQTFFGLYKL
As to B1, the “cell killing after silencing of Apaf-1” value in series [10] is listed as “still sensitive”.
